This note sets out measurements from ChEMBL document CHEMBL3714766, “Tetrahydroisoquinoline compounds and their use as pyruvate dehydrogenase kinase inhibitors” (2015).

A word on the IC50: it is the midpoint of a concentration-inhibition curve.

Experiment [1] addresses T1, Pyruvate dehydrogenase kinase (Homo sapiens, UniProt Q15119+Q15120+Q16654+Q15118). Description: Binding affinity to pyruvate dehydrogenase kinase (unknown origin) by VER-00160364 probe based fluorescence polarization assay. Background: In fluorescence polarisation assays a small probe gives low polarisation when free and higher when bound to something large.
In experiment [2] the target is T1, Pyruvate dehydrogenase kinase. Briefly: Inhibition of pyruvate dehydrogenase kinase in human PC3 cells incubated for 90 mins by phospho(Ser293)E1alpha MSP ELISA method. The experiment is classed as cell-based. To be noted: pc-3. A general note: ELISA stands for enzyme-linked immunosorbent assay.
For experiment [3] the target is unchanged. Description: Inhibition of pyruvate dehydrogenase kinase (unknown origin) assessed as reduction in E1 phosphorylation incubated for 1 hr by DELFIA method. The experiment is classed as protein assay.

Each structure is given as a SMILES string.

On to `COc1cnc(Cl)nc1-c1ccc2c(c1)CC[C@H](C)N2C(=O)c1ccc(O)cc1O`, for which the results for the IC50 in experiment [1] and in experiment [2] were 100 nM and 1000 nM, respectively.
For the compound `Cc1cc(S(=O)(=O)NCc2ccccc2)cnc1-c1ccc2c(c1)CCC(c1cccnc1)N2C(=O)c1ccc(O)cc1O` (stereo unspecified), the IC50 in experiment [3] turned out to be 10 nM.
Consider `C[C@H]1CCc2cc(-c3ncnc4ccsc34)ccc2N1C(=O)c1ccc(O)cc1O`, for which the IC50 in experiment [1] was determined as 100 nM; in experiment [2], 1000 nM.
For `Cc1cc(S(=O)(=O)N2CCC(F)(F)CC2)cnc1-c1ccc2c(c1)CCC(c1cccnc1)N2C(=O)c1ccc(O)cc1O` (stereo unspecified), the 50% inhibitory concentration (IC50) in experiment [3] is reported as 10 nM.
Regarding `C[C@H]1CCc2cc(-c3nc(Cl)nc4[nH]ccc34)ccc2N1C(=O)c1ccc(O)cc1O`, the IC50 in experiment [1] and in experiment [2] was 1000 nM each time.
With `C[C@H]1CCc2cc(C(=O)N(C)Cc3cccc4ccccc34)ccc2N1C(=O)c1ccc(O)cc1O`, the IC50 in experiment [1] came to 100 nM; in experiment [2], 1000 nM.
Take `Cc1nc(C(F)(F)F)nc(-c2ccc3c(c2)CC[C@H](C)N3C(=O)c2ccc(O)cc2O)c1C`: the concentration for half-maximal inhibition (IC50) in experiment [1] is 100 nM; in experiment [2], 1000 nM.
The corresponding values for `Cc1cc2ccccc2nc1-c1ccc2c(c1)CC[C@H](C)N2C(=O)c1ccc(O)cc1O` are 100 nM and 1000 nM.
The corresponding values for `Cc1cc(S(=O)(=O)NCc2ccncc2)cnc1-c1ccc2c(c1)CC[C@H](C)N2C(=O)c1ccc(O)cc1O` are 10 nM and 1000 nM.
`O=C(c1ccc(O)cc1O)N1c2ccc(-c3ncnc4cccc(F)c34)cc2CCC1c1cccnc1` (stereo unspecified): the IC50 in experiment [3] amounted to 10 nM.
In the case of `Cc1cnc(Cl)nc1-c1ccc2c(c1)CC[C@H](C)N2C(=O)c1cc(F)c(O)cc1O`, the IC50 in experiment [1] came out at 10 nM; in experiment [2] it was 1000 nM.
As for `Cc1cnc(Cl)nc1-c1ccc2c(c1)CC[C@H](c1cccnc1)N2C(=O)c1ccc(O)cc1O`, the IC50 in experiment [3] worked out at 100 nM; in experiment [2], 1000 nM.
With `C[C@H]1CCc2cc(C(=O)N(C)Cc3cccc4cnccc34)ccc2N1C(=O)c1ccc(O)cc1O`, the IC50 was found to be 10 nM in experiment [1] and 1000 nM in experiment [2].
In the case of `Cc1cc(S(=O)(=O)N2CC(F)(F)C2)cnc1-c1ccc2c(c1)CCC(c1cccnc1)N2C(=O)c1ccc(O)cc1O` (stereo unspecified), the IC50 in experiment [3] is 10 nM.
On to `O=C(c1ccc(O)cc1O)N1c2ccc(-c3nc(Cl)nc4[nH]ccc34)cc2CCC1c1cccnc1` (stereo unspecified), for which the IC50 worked out at 100 nM in experiment [1] and 1000 nM in experiment [2].
The corresponding values for `C[C@H]1CCc2cc(-c3nc(Cl)nc4ccsc34)ccc2N1C(=O)c1ccc(O)cc1O` are 1000 nM and 1000 nM.
The corresponding values for `Cc1cnc(Cl)nc1-c1ccc2c(c1)CCC(C)N2C(=O)c1cc(Cl)c(O)cc1O` (stereo unspecified) are 100 nM and 1000 nM.
In the case of `O=C(c1cc(Cl)c(O)cc1O)N1c2ccccc2CC[C@@H]1c1cccnc1`, in experiment [3], the IC50 stood at 100 nM.
For the compound `C[C@H]1CCc2cc(C(=O)N(C)Cc3cccs3)ccc2N1C(=O)c1ccc(O)cc1O`, the half-inhibitory concentration (IC50) in experiment [1] was 10 nM; in experiment [2], 10000 nM.
The corresponding values for `Cc1csc2ncnc(-c3ccc4c(c3)CC[C@H](C)N4C(=O)c3ccc(O)cc3O)c12` are 100 nM and 1000 nM.
The corresponding values for `Cc1sc2ncnc(-c3ccc4c(c3)CC[C@H](C)N4C(=O)c3ccc(O)cc3O)c2c1C` are 100 nM and 10000 nM.
The corresponding values for `COc1ccc(CN(C)C(=O)c2ccc3c(c2)CC[C@H](C)N3C(=O)c2ccc(O)cc2O)cc1` are 100 nM and 1000 nM.
Consider `C[C@H]1CCc2cc(C(=O)N(C)Cc3ccc4nccnc4c3)ccc2N1C(=O)c1ccc(O)cc1O`, for which the results for the IC50 in experiment [1] and in experiment [2] were 10 nM and 1000 nM, respectively.
Consider `COc1cnc(Cl)nc1-c1ccc2c(c1)CC[C@H](c1cccnc1)N2C(=O)c1cc(Cl)c(O)cc1O`, for which the 50% inhibitory concentration (IC50) was 100 nM in experiment [3] and 1000 nM in experiment [2].
`O=C(c1ccc(O)cc1O)N1c2ccccc2CCC1C(F)(F)F` (stereo unspecified): the concentration for half-maximal inhibition (IC50) in experiment [3] was 100 nM.
As for `C[C@H]1CCc2cc(C(=O)N(C)Cc3ccc4ccccc4n3)ccc2N1C(=O)c1ccc(O)cc1O`, the 50% inhibitory concentration (IC50) in experiment [1] worked out at 100 nM; in experiment [2], 1000 nM.
